≈ marks a conversion by molar mass, not a printed value. Numbered stars: 1 amine (or outer) side, 2 acyl side, 3 side chain; on linkers, the order of the positions; unused ones are H or OH. Square brackets hold non-standard residues; d marks the D form. Peptide text beside a SMILES is read from it. X2 = C[C@@H](c1cccc2ccccc12)N(CC(=O)[*:2])[*:1]; Nspe = C[C@H](NCC(=O)O)c1ccccc1; Nphe = O=C(O)CNCc1ccccc1; Nlys = NCCCCNCC(=O)O
Experiments:
E. coli ATCC 35218 = type: cell-based
Description: MICs against B. subtilis and E. coli screening bacterial strains were determined using serial dilution in 96-well microtiter plates in accordance with CLSI M7-A6 protocols. Briefly, peptoid solution in cation-adjusted Mueller-Hinton broth was prepared by 2:1 serial dilution with a total volume of 50 µL per well. In experimental wells, 50 µL of bacterial inoculums (1 x 10^6 CFU/mL) were added to the peptoid solutions. Positive controls consisted of 50 µL inoculums added to 50 µL cation-adjusted Mueller-Hinton broth containing no peptoid, while negative controls contained only cation-adjusted Mueller-Hinton broth. […] Experiments were reproducible among three independent replicates, each consisting of two parallel trials.

erythrocytes = assay: Hemolytic activity (HD10/HD50); type: cell-based
From the text: Table 1 Characteristics of antimicrobial peptoids, screened for activity against B. subtilis and E. coli bacterial strains. | column: HD10 / HD50

[1] = system: K. pneumonia 63575 (ESBL); assay: microbe, parasite or virus in culture
Description: (§1) The MICs of test agents were measured using a modified broth micro-dilution method in Difco Mueller Hinton medium, on a panel of bacterial pathogens that were both susceptible and resistant to common antibiotics (S1 File). Briefly, serial dilutions were performed in 0.01% acetic acid containing 0.2% bovine serum albumin at 10-fold the desired final concentration. Ten μL of the 10-fold concentrated test reagents were added to each well of a 96-well polypropylene microtitre plate containing 90 μL of Mueller Hinton media per well. Bacteria were added to the plate from an overnight culture at a final concentration of 2–7 x 10^5 CFU/mL and incubated overnight at 37°C. The MIC is defined as the concentration at which no growth was observed.
(§2) Screening of peptoid antimicrobial activity against a panel of multidrug resistant superbugs was done according to the protocol described in the manuscript. The bacterial strains used in this panel included; P. aeruginosa PAO1 strain H103 [1], P. maltophilia ATCC#13637, S. aureus ATCC#25923 [1], E. faecalis ATCC#29212 [2], and E. cloacae 218R, constitutively expressing Class C chromosomal β-lactamase, were from the Hancock lab strains collection. An MRSA clinical isolate was kindly provided by Anthony Chow (Vancouver General Hospital, Vancouver, Canada). Two Klebsiella pneumoniae and two E. coli clinical isolates expressing extended spectrum β-lactamases (ESBL) were kindly provided by George Zhanel (Health Sciences Centre, Winnipeg, Canada). Vancomycin-resistant clinical isolates of Enterococcus faecalis and E. faecium were obtained from Ana M. Paccagnella (BC Centre for Disease Control, Vancouver, Canada). Three clinical isolates (#9, #198 and #213) of multi-drug resistant P. aeruginosa, were kindly provided by Carlos Kiffer (University of São Paulo, Brazil). […] Three P. aeruginosa clinical isolates of the Liverpool epidemic strain (LES) (H1027, H1030 and LES400) were all kindly provided by Craig Winstanley (University of Liverpool, UK). […] All tested bacterial strains were categorized as biohazard level 2 pathogens.

P. aeruginosa 198 (MDR) = assay: microbe, parasite or virus in culture; conditions: 198 (MDR)
Description: as §1, §2

[2] = system: P. aeruginosa H1027 (MDR); assay: microbe, parasite or virus in culture; conditions: H1027 (MDR)
Description: as §1, §2

[3] = system: P. aeruginosa H1030 (MDR); assay: microbe, parasite or virus in culture; conditions: P. aeruginosa H1030 (MDR)
Description: as §1, §2

E. faecium mic80 (VRE) = assay: microbe, parasite or virus in culture; conditions: mic80 (VRE)
Description: as §1, §2

[4] = system: E. cloacae 218R Class C β-lactamase; assay: microbe, parasite or virus in culture; conditions: 218R Class C β-lactamase
Description: as §1, §2

P. aeruginosa 9 (MDR) = assay: microbe, parasite or virus in culture; conditions: 9 (MDR)
Description: as §1, §2

E. coli 63103 (ESBL) = assay: microbe, parasite or virus in culture; conditions: 63103 (ESBL)
Description: as §1, §2

E. faecium T62764 (VRE) = assay: microbe, parasite or virus in culture; conditions: T62764 (VRE)
Description: as §1, §2

S. aureus C623 (MRSA) = assay: microbe, parasite or virus in culture; conditions: C623
Description: as §1, §2

E. faecalis ATCC29212 = assay: microbe, parasite or virus in culture; conditions: ATCC29212
Description: as §1, §2

[5] = system: P. aeruginosa LES400 (MDR); assay: microbe, parasite or virus in culture; conditions: LES400 (MDR)
Description: as §1, §2

S. aureus ATCC25923 = assay: microbe, parasite or virus in culture; conditions: ATCC25923
Description: as §1, §2

E. coli 64771 (ESBL) = assay: microbe, parasite or virus in culture; conditions: 64771 (ESBL)
Description: as §1, §2

P. aeruginosa 213 (MDR) = assay: microbe, parasite or virus in culture; conditions: 213 (MDR)
Description: as §1, §2

P. maltophilia ATCC13637 = assay: microbe, parasite or virus in culture; conditions: ATCC13637
Description: as §1, §2

E. faecalis F43559 (VRE) = assay: microbe, parasite or virus in culture; conditions: F43559 (VRE)
Description: as §1, §2

[6] = system: P. aeruginosa H103 (wild type); assay: microbe, parasite or virus in culture; conditions: H103 (wild type)
Description: as §1, §2

[7] = system: K. pneumonia 61962 (ESBL); assay: microbe, parasite or virus in culture
Description: as §1, §2

E. faecalis W61950 (VRE) = assay: microbe, parasite or virus in culture; conditions: W61950 (VRE)
Description: as §1, §2

| SMILES | MIC [1] [µg/mL] | MIC (P. aeruginosa 198 (MDR)) [µg/mL] | MIC [2] [µg/mL] | MIC [3] [µg/mL] | MIC (E. faecium mic80 (VRE)) [µg/mL] | MIC [4] [µg/mL] | MIC (P. aeruginosa 9 (MDR)) [µg/mL] | MIC (E. coli 63103 (ESBL)) [µg/mL] | MIC (E. faecium T62764 (VRE)) [µg/mL] | MIC (S. aureus C623 (MRSA)) [µg/mL] | MIC (E. faecalis ATCC29212) [µg/mL] | MIC [5] [µg/mL] | MIC (S. aureus ATCC25923) [µg/mL] | MIC (E. coli 64771 (ESBL)) [µg/mL] | MIC (P. aeruginosa 213 (MDR)) [µg/mL] | MIC (P. maltophilia ATCC13637) [µg/mL] | MIC (E. faecalis F43559 (VRE)) [µg/mL] | MIC [6] [µg/mL] | MIC [7] [µg/mL] | MIC (E. faecalis W61950 (VRE)) [µg/mL] | further results |
| --- | --- | --- | --- | --- | --- | --- | --- | --- | --- | --- | --- | --- | --- | --- | --- | --- | --- | --- | --- | --- | --- |
| C[C@@H](c1ccccc1)N(CC(N)=O)C(=O)CN(C(=O)CN(CCCCN)C(=O)CN(Cc1ccccc1)C(=O)CN(Cc1ccccc1)C(=O)CN(CCCCN)C(=O)CN(C(=O)CN(C(=O)CN(CCCCN)C(=O)CN(Cc1ccccc1)C(=O)CN(Cc1ccccc1)C(=O)CNCCCCN)[C@@H](C)c1ccccc1)[C@@H](C)c1ccccc1)[C@@H](C)c1ccccc1 [1-Npm2,3,8,9, H-(NLys-Npm-Npm-NLys-Nspe-Nspe)2-NH2] | 16 (≈ 9.07 µM) | 8 (≈ 4.54 µM) | 2 (≈ 1.13 µM) | 16 (≈ 9.07 µM) | 4 (≈ 2.27 µM) | 8 (≈ 4.54 µM) | 64 (≈ 36.3 µM) | 8 (≈ 4.54 µM) | 1 (≈ 0.567 µM) | 2 (≈ 1.13 µM) | 4 (≈ 2.27 µM) | 4 (≈ 2.27 µM) | 2 (≈ 1.13 µM) | 4 (≈ 2.27 µM) | 4 (≈ 2.27 µM) | 1 (≈ 0.567 µM) | 8 (≈ 4.54 µM) | 4 (≈ 2.27 µM) | 32 (≈ 18.1 µM) | 8 (≈ 4.54 µM) | MIC E. coli (E. coli ATCC 35218): 6.3 µM (≈ 11.1 µg/mL); HD10 (hemolytic activity) (erythrocytes): 39; HD50 (hemolytic activity) (erythrocytes): > 200 |
| C[C@@H](c1ccccc1)N(CC(N)=O)C(=O)CN(Cc1ccccc1)C(=O)CN(CCCCN)C(=O)CN(C(=O)CN(Cc1ccccc1)C(=O)CN(CCCCN)C(=O)CN(C(=O)CN(Cc1ccccc1)C(=O)CN(CCCCN)C(=O)CN(C(=O)CN(Cc1ccccc1)C(=O)CNCCCCN)[C@@H](C)c1ccccc1)[C@@H](C)c1ccccc1)[C@@H](C)c1ccccc1 [1-Npm2,5,8,11, H-(NLys-Npm-Nspe)4-NH2] (H-[Nlys][Nphe][Nspe][Nlys][Nphe][Nspe][Nlys][Nphe][Nspe][Nlys][Nphe][Nspe]-NH2) | 16 (≈ 9.07 µM) | 8 (≈ 4.54 µM) | 2 (≈ 1.13 µM) | 16 (≈ 9.07 µM) | 4 (≈ 2.27 µM) | 8 (≈ 4.54 µM) | 64 (≈ 36.3 µM) | 8 (≈ 4.54 µM) | 1 (≈ 0.567 µM) | 8 (≈ 4.54 µM) | 4 (≈ 2.27 µM) | 8 (≈ 4.54 µM) | 4 (≈ 2.27 µM) | 4 (≈ 2.27 µM) | 4 (≈ 2.27 µM) | 2 (≈ 1.13 µM) | 4 (≈ 2.27 µM) | 4 (≈ 2.27 µM) | 32 (≈ 18.1 µM) | 16 (≈ 9.07 µM) | MIC E. coli (E. coli ATCC 35218): 6.3 µM (≈ 11.1 µg/mL); HD10 (hemolytic activity) (erythrocytes): 87; HD50 (hemolytic activity) (erythrocytes): > 200 |
| C[C@@H](c1ccccc1)N(CC(=O)N(CCCCN)CC(=O)N(CC(=O)N(CC(=O)N(CCCCN)CC(=O)N(CC(=O)N(CC(=O)N(CCCCN)CC(=O)N(CC(=O)N(CC(N)=O)[C@@H](C)c1cccc2ccccc12)[C@@H](C)c1ccccc1)[C@@H](C)c1ccccc1)[C@@H](C)c1ccccc1)[C@@H](C)c1cccc2ccccc12)[C@@H](C)c1ccccc1)C(=O)CN(C(=O)CNCCCCN)[C@@H](C)c1ccccc1 [1-Nsna6,12, H-(NLys-Nspe-Nspe-NLys-Nspe-Nsna)2-NH2] (H-[Nlys][Nspe][Nspe][Nlys][Nspe][X2][Nlys][Nspe][Nspe][Nlys][Nspe][X2]-NH2) | 32 (≈ 16.7 µM) | 16 (≈ 8.34 µM) | 2 (≈ 1.04 µM) | 32 (≈ 16.7 µM) | 4 (≈ 2.08 µM) | 32 (≈ 16.7 µM) | 128 (≈ 66.7 µM) | 16 (≈ 8.34 µM) | 2 (≈ 1.04 µM) | 4 (≈ 2.08 µM) | 4 (≈ 2.08 µM) | 8 (≈ 4.17 µM) | 4 (≈ 2.08 µM) | 8 (≈ 4.17 µM) | 8 (≈ 4.17 µM) | 1 (≈ 0.521 µM) | 8 (≈ 4.17 µM) | 4 (≈ 2.08 µM) | 64 (≈ 33.3 µM) | 16 (≈ 8.34 µM) | – |

Source: publication PMC4744035, “In Vivo, In Vitro, and In Silico Characterization of Peptoids as Antimicrobial Agents” (PLoS ONE, 2016)
